Experimental data reported in patent US11732003B2, “Mechanical method of maintaining narrow residence time distributions in continuous flow systems” (priority 2017, dated 2023).
Like-named read-outs stand apart in the source and are kept apart here.

Columns and labels:
Phi6 [1] = details: in-line continuous flow, 1 M acetic acid added at 0.75 mL/min to 1 mL/min feed
Procedure: This representative example describes the use of a continuous flow system to carry out low pH virus inactivation.
A system consisting of a main feed pump, an acid addition pump, and a base addition pump was used to inactivate virus under continuous flow conditions. A mAb solution was spiked with Phi6 and was connected to the main feed pump inlet. The Phi6 target spike level was 1×10^8 pfu/mL. […] The feed flow rate was set to 1 mL/min. Acid was added into the main stream at a flow rate of 0.75 mL/min. The fluid then passed through a static mixer and a length of tubing designed to contain a particular volume (targeting a desired residence time). Different lengths of tubing were used to contain the required volume for each target average residence time (1, 2, 3, 4, 5, 15 min) after accounting for the dead volume from the valves and pH probe between the acid addition point and the beginning of the incubation chamber. […] At the outlet of the incubation chamber, the material was neutralized by the addition of base into the main line at a flow rate of 0.4 mL/min. The fluid passed through another static mixer and then the neutralized samples were collected at the outlet and assayed for infectivity using the plaque assay. These experiments were carried out at room temperature, 22-25° C. Control samples were also assayed. For the control samples, the pH was maintained at the feed pH level but the samples were diluted similarly to the actual samples using the background buffer.

Phi6 [2] = details: static, pH 3.6 (8.7 M acetic acid), mAb 5 mg/mL, 22-25° C.
Procedure: In this representative experiment, the purpose was to evaluate the inactivation kinetics of an enveloped bacteriophage virus (Phi6) at low pH conditions. The objective was to determine the exposure time required for complete inactivation.
A monoclonal antibody (mAb) was purified by standard Protein A chromatography and prepared at a concentration of 5 mg/mL. […] Human serum albumin (HSA) (0.25% v/v) was added for Phi6 stability. Following confirmation of pH, the virus spike was added to the sample reservoir containing the mAb and vortexed to ensure a well-mixed system. The Phi6 target spike level was 1×10^7 pfu (plaque forming units)/mL. Within 0.3 minutes of the virus addition, a 1 mL sample was removed and transferred to a tube containing a previously determined volume of 2 M Tris Base, pH 10 to neutralize (pH 6-8) the sample and quench the inactivation step. The tube was vortexed after the base addition. This process of removing and neutralizing a sample was repeated for each time point. These experiments were carried out at room temperature, 22-25° C. Control samples at the initial and final time points were also analyzed. For the control samples, the pH was maintained at the feed pH level (pH 6.3) but the samples were diluted similarly to the actual samples using the background buffer at pH 6.3.

[3] = test system: xenotropic murine leukemia virus (XMuLV); details: static, mAb 18 g/L; for Time to Complete Inactivation: XMuLV
Procedure: The purpose of this study was to evaluate the virus inactivation kinetics of xenotropic murine leukemia virus (XMuLV, an enveloped virus commonly used for clearance studies of monoclonal antibody products, under low pH conditions. The objective was to determine the exposure time required for complete inactivation.
Following confirmation of pH, the virus spike was added to the sample reservoir containing the mAb and vortexed to ensure a well-mixed system. The XMuLV target spike level was 1×10^7 TCID50/mL (TCID50=Tissue Culture Infection Dose) (4% spike v/v). Within 0.3 minutes of the virus addition, a 1 mL sample was removed and transferred to a tube containing a previously determined volume of 2 M Tris Base to neutralize (pH 6-8) the sample and quench the inactivation step. The tube was vortexed after the base addition. This process of removing and neutralizing a sample was repeated for each time point. These experiments were carried out at room temperature, 22-25° C. Control samples at the initial and final time points were also analyzed. For the control samples, the pH was maintained at the feed pH level but the samples were diluted similarly to the actual samples using the background buffer.
The neutralized samples were assayed for infectivity using the cell-based TCID50 infectivity assay using PG4 indicator cells (Bolton G, Cabatingan M, Rubino M, et al. Normal-flow virus filtration:detection and assessment of the endpoint in bio-processing. Biotechnol Appl Biochem 2005; 42: 133-42). To mitigate cytotoxicity and quench the virus inactivation, samples were diluted 1:50 with ten-fold serial dilutions in cell culture media and then 100 μl aliquots of each dilution were added to a 96-well plate. Following incubation at 37° C. in 5% CO2 for 7 days, infected wells were visually assessed for cytopathic effect (CPE). Titers and LRVs were calculated using standard methods (ICH. Guidance on Viral Safety Evaluation of Biotechnology Products Derived From Cell Lines of Human or Animal Origin. In: Use ICoHoTRfRoPfH, ed. Geneva, Switzerland: ICH, 1998). To determine the LRV at each time point, the titer of the time point was subtracted from the titer of the closest control time point.

SMILES: CC(=O)O [acetic acid]
- Phi6 LRV (Phi6 [1]; average residence time 1 min): ≥6.8
- Phi6 LRV (Phi6 [1]; average residence time 2 min): ≥6.8
- Phi6 LRV (Phi6 [1]; average residence time 3 min): ≥6.8
- Phi6 LRV (Phi6 [1]; average residence time 4 min): ≥6.8
- Phi6 LRV (Phi6 [1]; average residence time 5 min): ≥6.8
- Phi6 LRV (Phi6 [1]; average residence time 15 min): ≥6.8
- Phi6 Log Reduction Values (LRV) (Phi6 [2]; inactivation time 1 min): ≥6.8
- Phi6 Log Reduction Values (LRV) (Phi6 [2]; inactivation time 2 min): ≥6.8
- Phi6 Log Reduction Values (LRV) (Phi6 [2]; inactivation time 3 min): ≥6.8
- Phi6 Log Reduction Values (LRV) (Phi6 [2]; inactivation time 4 min): ≥6.8
- Phi6 Log Reduction Values (LRV) (Phi6 [2]; inactivation time 5 min): ≥6.8
- Phi6 Log Reduction Values (LRV) (Phi6 [2]; inactivation time 15 min): ≥6.8
- Time to Complete Inactivation ([3]; pH 4.0 (8.7 M acetic acid)): ≤15 min
- Time to Complete Inactivation ([3]; pH 4.2 (8.7 M acetic acid)): ≤30 min
- XMuLV LRV ([3]; pH 3.5 (8.7 M acetic acid), inactivation time 0.3 min): 4.0
- XMuLV LRV ([3]; pH 3.5 (8.7 M acetic acid), inactivation time 1 min): ≥5.4
- XMuLV LRV ([3]; pH 3.5 (8.7 M acetic acid), inactivation time 2 min): ≥5.4
- XMuLV LRV ([3]; pH 3.5 (8.7 M acetic acid), inactivation time 3 min): ≥5.4
- XMuLV LRV ([3]; pH 3.5 (8.7 M acetic acid), inactivation time 4 min): ≥5.4
- XMuLV LRV ([3]; pH 3.5 (8.7 M acetic acid), inactivation time 5 min): ≥5.5
- XMuLV LRV ([3]; pH 3.5 (8.7 M acetic acid), inactivation time 15 min): ≥5.5
- XMuLV LRV ([3]; pH 3.5 (8.7 M acetic acid), inactivation time 30 min): ≥5.5
- XMuLV LRV ([3]; pH 3.5 (8.7 M acetic acid), inactivation time 60 min): ≥5.5
- XMuLV LRV ([3]; pH 3.7 (8.7 M acetic acid), inactivation time 0.3 min): 3.6
- XMuLV LRV ([3]; pH 3.7 (8.7 M acetic acid), inactivation time 1 min): ≥5.5
- XMuLV LRV ([3]; pH 3.7 (8.7 M acetic acid), inactivation time 2 min): ≥5.5
- XMuLV LRV ([3]; pH 3.7 (8.7 M acetic acid), inactivation time 3 min): ≥5.5
- XMuLV LRV ([3]; pH 3.7 (8.7 M acetic acid), inactivation time 4 min): ≥5.5
- XMuLV LRV ([3]; pH 3.7 (8.7 M acetic acid), inactivation time 5 min): ≥5.7
- XMuLV LRV ([3]; pH 3.7 (8.7 M acetic acid), inactivation time 15 min): ≥5.7
- XMuLV LRV ([3]; pH 3.7 (8.7 M acetic acid), inactivation time 30 min): ≥5.7
- XMuLV LRV ([3]; pH 3.7 (8.7 M acetic acid), inactivation time 60 min): ≥5.7
- XMuLV LRV ([3]; pH 4.0 (8.7 M acetic acid), inactivation time 0.3 min): 1.6
- XMuLV LRV ([3]; pH 4.0 (8.7 M acetic acid), inactivation time 1 min): 4.7
- XMuLV LRV ([3]; pH 4.0 (8.7 M acetic acid), inactivation time 2 min): 5.2
- XMuLV LRV ([3]; pH 4.0 (8.7 M acetic acid), inactivation time 3 min): 5.3
- XMuLV LRV ([3]; pH 4.0 (8.7 M acetic acid), inactivation time 4 min): 5.2
- XMuLV LRV ([3]; pH 4.0 (8.7 M acetic acid), inactivation time 5 min): 5.6
- XMuLV LRV ([3]; pH 4.0 (8.7 M acetic acid), inactivation time 15 min): ≥5.4
- XMuLV LRV ([3]; pH 4.0 (8.7 M acetic acid), inactivation time 30 min): ≥5.4
- XMuLV LRV ([3]; pH 4.0 (8.7 M acetic acid), inactivation time 60 min): ≥5.4
- XMuLV LRV ([3]; pH 4.2 (8.7 M acetic acid), inactivation time 0.3 min): 1.5
- XMuLV LRV ([3]; pH 4.2 (8.7 M acetic acid), inactivation time 1 min): 3.3
- XMuLV LRV ([3]; pH 4.2 (8.7 M acetic acid), inactivation time 2 min): 3.5
- XMuLV LRV ([3]; pH 4.2 (8.7 M acetic acid), inactivation time 3 min): 3.9
- XMuLV LRV ([3]; pH 4.2 (8.7 M acetic acid), inactivation time 4 min): 4.0
- XMuLV LRV ([3]; pH 4.2 (8.7 M acetic acid), inactivation time 5 min): 4.2
- XMuLV LRV ([3]; pH 4.2 (8.7 M acetic acid), inactivation time 15 min): 4.6
- XMuLV LRV ([3]; pH 4.2 (8.7 M acetic acid), inactivation time 30 min): ≥5.7
- XMuLV LRV ([3]; pH 4.2 (8.7 M acetic acid), inactivation time 60 min): ≥5.7
